Laboratory results published in ChEMBL document CHEMBL3132769, “Fragment growing to retain or alter the selectivity of anchored kinase hinge-binding fragments” (Medchemcomm, 2014).

Experiments:
[1] = target: T1, cGMP-dependent protein kinase 1 (Homo sapiens) (UniProt Q13976); experiment: Inhibition of human full length PKG-1beta expressed in baculovirus assessed as substrate phosphorylation using fluorescence-labelled peptides as substrate at 0.2 uM after 90 mins by microfluidic peptide phosphorylation assay
T1 sequence (whole entry): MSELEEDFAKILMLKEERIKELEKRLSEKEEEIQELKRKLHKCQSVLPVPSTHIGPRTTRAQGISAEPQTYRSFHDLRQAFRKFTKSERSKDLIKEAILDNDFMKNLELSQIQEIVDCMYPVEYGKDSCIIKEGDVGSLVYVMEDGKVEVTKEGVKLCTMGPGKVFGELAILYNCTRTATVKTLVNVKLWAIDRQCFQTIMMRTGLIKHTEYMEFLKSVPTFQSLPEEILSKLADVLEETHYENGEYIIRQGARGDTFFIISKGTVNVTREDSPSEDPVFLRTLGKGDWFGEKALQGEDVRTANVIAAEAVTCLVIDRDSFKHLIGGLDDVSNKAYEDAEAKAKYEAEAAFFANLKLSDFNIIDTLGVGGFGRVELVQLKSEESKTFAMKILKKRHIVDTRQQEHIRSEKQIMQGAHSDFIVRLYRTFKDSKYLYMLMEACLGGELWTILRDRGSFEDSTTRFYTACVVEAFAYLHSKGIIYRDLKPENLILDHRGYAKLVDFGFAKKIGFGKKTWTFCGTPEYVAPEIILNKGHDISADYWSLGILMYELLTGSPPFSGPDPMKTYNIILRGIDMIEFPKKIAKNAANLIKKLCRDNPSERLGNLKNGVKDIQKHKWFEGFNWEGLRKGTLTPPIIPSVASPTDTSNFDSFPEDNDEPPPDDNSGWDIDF

[2] = target: T2, Aurora kinase C (Homo sapiens) (UniProt Q9UQB9); experiment: Inhibition of human full length AurC expressed in baculovirus assessed as substrate phosphorylation using fluorescence-labelled peptides as substrate at 9 uM after 90 mins by microfluidic peptide phosphorylation assay
T2 sequence (whole entry): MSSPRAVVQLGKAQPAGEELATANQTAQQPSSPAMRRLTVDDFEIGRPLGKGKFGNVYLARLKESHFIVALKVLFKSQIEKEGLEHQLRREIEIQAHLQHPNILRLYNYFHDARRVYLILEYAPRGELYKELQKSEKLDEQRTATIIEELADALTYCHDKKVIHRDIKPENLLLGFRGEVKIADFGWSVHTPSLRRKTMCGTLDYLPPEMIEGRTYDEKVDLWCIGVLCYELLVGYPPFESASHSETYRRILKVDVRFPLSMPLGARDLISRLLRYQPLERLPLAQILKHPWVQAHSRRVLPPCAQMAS

[3] = target: Protein kinase C eta type (Homo sapiens) (UniProt P24723); experiment: Inhibition of human truncated PKC eta expressed in baculovirus assessed as substrate phosphorylation using fluorescence-labelled peptides as substrate at 9 uM after 90 mins by microfluidic peptide phosphorylation assay
[4] = target: T3, Mitogen-activated protein kinase 12 (Homo sapiens) (UniProt P53778); experiment: Inhibition of human full length p38 gamma expressed in Escherichia coli cell assessed as substrate phosphorylation using fluorescence-labelled peptides as substrate at 2 uM after 90 mins by microfluidic peptide phosphorylation assay
T3 sequence (whole entry): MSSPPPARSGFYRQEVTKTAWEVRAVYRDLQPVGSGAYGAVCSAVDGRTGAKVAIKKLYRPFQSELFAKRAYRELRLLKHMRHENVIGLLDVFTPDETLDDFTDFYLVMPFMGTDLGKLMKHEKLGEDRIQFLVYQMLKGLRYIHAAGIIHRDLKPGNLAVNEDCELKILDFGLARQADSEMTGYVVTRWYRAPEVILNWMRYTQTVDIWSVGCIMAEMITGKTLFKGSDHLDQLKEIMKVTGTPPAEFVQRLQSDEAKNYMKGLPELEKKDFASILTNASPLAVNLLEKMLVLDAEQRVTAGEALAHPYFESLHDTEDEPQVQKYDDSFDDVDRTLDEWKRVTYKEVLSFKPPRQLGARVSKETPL

[5] = target: Vascular endothelial growth factor receptor 2 (Homo sapiens) (UniProt P35968); experiment: Inhibition of human KDR cytoplasmic domain expressed in baculovirus assessed as substrate phosphorylation using fluorescence-labelled peptides as substrate at 2 uM after 90 mins by microfluidic peptide phosphorylation assay
[6] = target: Fibroblast growth factor receptor 2 (Homo sapiens) (UniProt P21802); experiment: Inhibition of human FGFR2 catalytic domain expressed in baculovirus assessed as substrate phosphorylation using fluorescence-labelled peptides as substrate at 2 uM after 90 mins by microfluidic peptide phosphorylation assay
[7] = target: Ribosomal protein S6 kinase alpha-3 (Homo sapiens) (UniProt P51812); experiment: Inhibition of human full length RSK2 expressed in baculovirus assessed as substrate phosphorylation using fluorescence-labelled peptides as substrate at 0.1 uM after 90 mins by microfluidic peptide phosphorylation assay
[8] = target: Glycogen synthase kinase-3 beta (Homo sapiens) (UniProt P49841); experiment: Inhibition of human full length GSK-3 beta expressed in baculovirus assessed as substrate phosphorylation using fluorescence-labelled peptides as substrate at […] after 90 mins by microfluidic peptide phosphorylation assay
[9] = target: Mitogen-activated protein kinase kinase kinase kinase 4 (Homo sapiens) (UniProt O95819); experiment: Inhibition of human HGK catalytic domain expressed in baculovirus assessed as substrate phosphorylation using fluorescence-labelled peptides as substrate at 0.06 uM after 90 mins by microfluidic peptide phosphorylation assay
[10] = target: Ribosomal protein S6 kinase alpha-4 (Homo sapiens) (UniProt O75676); experiment: Inhibition of human full length MSK2 expressed in baculovirus assessed as substrate phosphorylation using fluorescence-labelled peptides as substrate at 8 uM after 90 mins by microfluidic peptide phosphorylation assay
[11] = target: T4, Serine/threonine-protein kinase Chk1 (Homo sapiens) (UniProt O14757); experiment: Inhibition of human full length CHK1 expressed in baculovirus assessed as substrate phosphorylation using fluorescence-labelled peptides as substrate at 1000 uM after 90 mins by microfluidic peptide phosphorylation assay
T4 sequence (whole entry): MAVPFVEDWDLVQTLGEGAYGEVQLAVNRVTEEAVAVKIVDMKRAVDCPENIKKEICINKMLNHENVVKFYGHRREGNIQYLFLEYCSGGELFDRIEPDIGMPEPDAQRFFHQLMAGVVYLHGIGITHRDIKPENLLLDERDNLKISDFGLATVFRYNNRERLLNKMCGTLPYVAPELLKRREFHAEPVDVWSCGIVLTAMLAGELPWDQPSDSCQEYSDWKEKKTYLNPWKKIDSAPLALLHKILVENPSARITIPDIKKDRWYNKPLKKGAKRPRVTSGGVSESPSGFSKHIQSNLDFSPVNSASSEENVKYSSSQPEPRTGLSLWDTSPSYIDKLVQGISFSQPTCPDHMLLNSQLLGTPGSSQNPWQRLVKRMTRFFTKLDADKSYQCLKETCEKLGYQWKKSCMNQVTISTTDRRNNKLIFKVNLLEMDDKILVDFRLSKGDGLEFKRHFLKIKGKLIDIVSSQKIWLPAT

[12] = target: Vascular endothelial growth factor receptor 2 (Homo sapiens) (UniProt P35968); experiment: Inhibition of human KDR cytoplasmic domain expressed in baculovirus assessed as substrate phosphorylation using fluorescence-labelled peptides as substrate at 1000 uM after 90 mins by microfluidic peptide phosphorylation assay

Sequence of Vascular endothelial growth factor receptor 2 (Homo sapiens) (P35968 whole entry, the tested form may be a part): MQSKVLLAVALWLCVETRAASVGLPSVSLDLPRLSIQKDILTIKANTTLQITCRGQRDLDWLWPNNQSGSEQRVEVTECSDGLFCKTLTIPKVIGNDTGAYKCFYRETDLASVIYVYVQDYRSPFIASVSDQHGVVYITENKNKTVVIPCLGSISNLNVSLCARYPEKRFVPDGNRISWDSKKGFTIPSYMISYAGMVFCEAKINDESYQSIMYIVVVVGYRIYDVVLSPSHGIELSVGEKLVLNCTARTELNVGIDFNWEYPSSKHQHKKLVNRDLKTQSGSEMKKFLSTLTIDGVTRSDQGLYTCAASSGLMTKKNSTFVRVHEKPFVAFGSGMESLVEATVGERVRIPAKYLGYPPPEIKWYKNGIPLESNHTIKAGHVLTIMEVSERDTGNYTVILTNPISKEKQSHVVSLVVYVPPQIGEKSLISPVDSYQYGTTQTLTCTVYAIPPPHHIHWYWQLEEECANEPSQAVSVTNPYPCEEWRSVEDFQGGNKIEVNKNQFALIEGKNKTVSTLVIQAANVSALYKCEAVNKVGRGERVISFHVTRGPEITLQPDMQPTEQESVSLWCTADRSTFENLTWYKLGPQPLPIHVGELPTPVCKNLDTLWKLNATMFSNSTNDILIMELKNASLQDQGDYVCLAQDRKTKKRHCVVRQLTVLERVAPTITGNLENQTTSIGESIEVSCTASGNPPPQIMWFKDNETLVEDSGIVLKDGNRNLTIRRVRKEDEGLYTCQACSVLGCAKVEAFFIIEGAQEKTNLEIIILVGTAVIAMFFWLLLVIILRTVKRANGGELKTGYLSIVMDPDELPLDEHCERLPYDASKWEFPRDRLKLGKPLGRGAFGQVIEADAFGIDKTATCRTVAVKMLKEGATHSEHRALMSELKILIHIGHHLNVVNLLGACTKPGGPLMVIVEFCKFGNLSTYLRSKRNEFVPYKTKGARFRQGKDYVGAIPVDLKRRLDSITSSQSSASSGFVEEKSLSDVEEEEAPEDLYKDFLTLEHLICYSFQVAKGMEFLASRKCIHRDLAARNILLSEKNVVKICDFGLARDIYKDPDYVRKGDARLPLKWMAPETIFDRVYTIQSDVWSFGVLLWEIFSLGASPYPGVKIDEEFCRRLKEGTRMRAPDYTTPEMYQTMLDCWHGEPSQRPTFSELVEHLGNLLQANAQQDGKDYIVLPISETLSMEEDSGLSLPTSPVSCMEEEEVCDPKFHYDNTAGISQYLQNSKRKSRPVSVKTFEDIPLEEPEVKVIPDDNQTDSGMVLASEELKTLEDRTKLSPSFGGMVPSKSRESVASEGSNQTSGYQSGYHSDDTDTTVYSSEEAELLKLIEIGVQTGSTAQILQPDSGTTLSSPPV
Sequence of Ribosomal protein S6 kinase alpha-4 (Homo sapiens) (O75676 whole entry, looked up): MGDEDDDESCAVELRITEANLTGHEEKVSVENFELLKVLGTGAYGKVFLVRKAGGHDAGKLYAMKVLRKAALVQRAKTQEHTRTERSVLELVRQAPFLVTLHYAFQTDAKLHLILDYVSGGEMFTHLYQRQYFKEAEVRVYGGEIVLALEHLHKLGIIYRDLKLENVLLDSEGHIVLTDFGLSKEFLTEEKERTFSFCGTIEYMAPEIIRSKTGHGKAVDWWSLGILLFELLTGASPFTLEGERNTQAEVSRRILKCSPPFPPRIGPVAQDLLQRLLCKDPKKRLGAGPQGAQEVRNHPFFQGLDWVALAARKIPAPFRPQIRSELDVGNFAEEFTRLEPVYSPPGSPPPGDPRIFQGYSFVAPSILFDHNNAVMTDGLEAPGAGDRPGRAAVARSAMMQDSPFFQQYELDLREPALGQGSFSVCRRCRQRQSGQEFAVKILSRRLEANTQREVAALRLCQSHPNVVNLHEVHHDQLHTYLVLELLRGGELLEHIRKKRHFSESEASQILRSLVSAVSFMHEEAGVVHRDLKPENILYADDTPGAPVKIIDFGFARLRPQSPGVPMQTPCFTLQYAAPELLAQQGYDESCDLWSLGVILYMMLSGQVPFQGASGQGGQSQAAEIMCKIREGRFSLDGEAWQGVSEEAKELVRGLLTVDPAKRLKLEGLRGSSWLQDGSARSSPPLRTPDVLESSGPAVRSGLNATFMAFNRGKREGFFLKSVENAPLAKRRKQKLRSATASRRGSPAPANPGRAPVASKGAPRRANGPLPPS
Sequence of Ribosomal protein S6 kinase alpha-3 (Homo sapiens) (P51812 whole entry): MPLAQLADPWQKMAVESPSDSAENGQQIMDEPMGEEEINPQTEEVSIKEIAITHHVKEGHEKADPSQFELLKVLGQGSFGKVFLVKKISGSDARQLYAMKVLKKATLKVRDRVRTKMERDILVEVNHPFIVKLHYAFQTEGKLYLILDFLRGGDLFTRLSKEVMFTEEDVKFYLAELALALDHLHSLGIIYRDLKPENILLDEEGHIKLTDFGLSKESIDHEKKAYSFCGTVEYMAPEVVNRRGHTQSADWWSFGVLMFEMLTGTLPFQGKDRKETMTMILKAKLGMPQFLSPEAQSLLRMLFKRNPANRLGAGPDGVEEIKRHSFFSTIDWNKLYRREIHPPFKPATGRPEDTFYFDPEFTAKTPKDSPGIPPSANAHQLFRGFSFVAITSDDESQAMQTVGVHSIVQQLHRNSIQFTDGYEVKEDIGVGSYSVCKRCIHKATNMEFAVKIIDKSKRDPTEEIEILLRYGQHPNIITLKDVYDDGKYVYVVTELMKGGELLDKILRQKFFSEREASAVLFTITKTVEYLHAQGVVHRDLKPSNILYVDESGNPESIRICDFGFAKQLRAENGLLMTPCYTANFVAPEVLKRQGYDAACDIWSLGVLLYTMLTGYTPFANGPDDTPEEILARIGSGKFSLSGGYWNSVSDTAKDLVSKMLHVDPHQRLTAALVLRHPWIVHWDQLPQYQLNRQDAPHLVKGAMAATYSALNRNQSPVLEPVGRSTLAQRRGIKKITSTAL
Sequence of Glycogen synthase kinase-3 beta (Homo sapiens) (P49841 whole entry, looked up, the tested form may be a part): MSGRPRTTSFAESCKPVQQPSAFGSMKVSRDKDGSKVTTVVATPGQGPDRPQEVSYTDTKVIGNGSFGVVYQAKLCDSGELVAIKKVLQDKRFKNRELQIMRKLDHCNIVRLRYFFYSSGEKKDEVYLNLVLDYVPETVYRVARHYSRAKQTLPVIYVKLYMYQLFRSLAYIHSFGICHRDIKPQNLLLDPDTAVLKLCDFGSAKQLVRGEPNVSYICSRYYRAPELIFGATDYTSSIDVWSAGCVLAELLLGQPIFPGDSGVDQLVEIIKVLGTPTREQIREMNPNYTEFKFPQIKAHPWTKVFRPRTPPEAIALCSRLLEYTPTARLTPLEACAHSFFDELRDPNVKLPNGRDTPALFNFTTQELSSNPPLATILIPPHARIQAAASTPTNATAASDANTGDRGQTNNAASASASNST
Sequence of Mitogen-activated protein kinase kinase kinase kinase 4 (Homo sapiens) (O95819 2-1239 limits assumed): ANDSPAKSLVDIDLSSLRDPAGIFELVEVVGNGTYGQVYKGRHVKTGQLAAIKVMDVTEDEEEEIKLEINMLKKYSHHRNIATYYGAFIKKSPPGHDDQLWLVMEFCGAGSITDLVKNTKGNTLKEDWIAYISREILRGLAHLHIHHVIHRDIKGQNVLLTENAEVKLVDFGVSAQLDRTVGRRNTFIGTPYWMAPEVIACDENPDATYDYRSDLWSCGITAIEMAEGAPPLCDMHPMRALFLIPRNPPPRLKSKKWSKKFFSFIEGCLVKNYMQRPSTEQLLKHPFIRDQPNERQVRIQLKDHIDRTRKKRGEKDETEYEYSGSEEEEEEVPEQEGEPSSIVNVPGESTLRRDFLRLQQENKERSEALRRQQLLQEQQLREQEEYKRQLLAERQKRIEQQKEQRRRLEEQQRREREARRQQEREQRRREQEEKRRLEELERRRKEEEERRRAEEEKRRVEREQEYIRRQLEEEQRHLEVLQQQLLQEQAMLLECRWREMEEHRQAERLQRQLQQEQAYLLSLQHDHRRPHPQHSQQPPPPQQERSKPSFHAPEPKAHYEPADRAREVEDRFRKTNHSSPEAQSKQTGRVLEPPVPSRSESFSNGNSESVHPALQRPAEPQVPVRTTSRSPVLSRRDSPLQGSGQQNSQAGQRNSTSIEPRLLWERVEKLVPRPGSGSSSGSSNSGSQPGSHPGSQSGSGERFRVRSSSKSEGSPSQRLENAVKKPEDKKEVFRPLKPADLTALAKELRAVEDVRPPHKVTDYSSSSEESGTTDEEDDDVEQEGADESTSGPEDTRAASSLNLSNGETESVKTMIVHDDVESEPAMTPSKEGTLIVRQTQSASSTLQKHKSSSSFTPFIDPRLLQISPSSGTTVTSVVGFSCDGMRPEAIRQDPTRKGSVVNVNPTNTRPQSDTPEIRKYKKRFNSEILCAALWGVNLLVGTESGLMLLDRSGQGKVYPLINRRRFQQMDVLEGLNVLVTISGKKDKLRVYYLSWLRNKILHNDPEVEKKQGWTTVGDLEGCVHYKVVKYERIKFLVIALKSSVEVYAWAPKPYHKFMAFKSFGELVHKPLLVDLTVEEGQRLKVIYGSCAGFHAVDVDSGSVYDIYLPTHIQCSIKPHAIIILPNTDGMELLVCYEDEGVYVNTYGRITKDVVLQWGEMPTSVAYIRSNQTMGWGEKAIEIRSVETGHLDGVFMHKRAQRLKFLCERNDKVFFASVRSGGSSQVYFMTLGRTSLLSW

Which inhibition [1] does the source give for `Clc1ccc(C2(c3ccc(-c4ncnc5[nH]cnc45)cc3)CCNCC2)cc1` here?
Its inhibition is 88.5%.

Which inhibition [2] does the source give for `NCC1CN(c2ncnc3[nH]c4cnccc4c23)CCO1` (configuration not stated) here?
Its inhibition is 11.5%.

What about the inhibition [3] of the same compound?
The inhibition was 54.5%.

How did the inhibition [4] turn out when `NC1CCN(c2ncnc3[nH]ccc23)CC1` was run?
The inhibition was 1.5%.

And the inhibition [5]?
Its inhibition is 0%.

And the inhibition [6]?
The inhibition was 1.5%.

For `C[C@H](CN(C)C)Oc1nc(Nc2cc3cccc(Cl)c3cn2)cnc1C#N`, which inhibition [7] is on record?
Its inhibition is 59.5%.

`COC(=O)c1cnc(Nc2cnc(C#N)cn2)cc1NCC1CCNCC1` was tested. Which inhibition [8] did it give?
The inhibition was 3.5%.

With `NC1(Cc2ccc(Cl)cc2)CCN(c2ncnc3[nH]ccc23)CC1` as the compound, how does the inhibition [9] read?
Its inhibition is 1%.

With `NCC1CCN(c2ncnc3[nH]ccc23)CC1` as the compound, how does the inhibition [10] read?
The inhibition was 50%.

For `c1cnc2[nH]ccc2c1`, which inhibition [11] is on record?
Its inhibition is 52%.

And the inhibition [12]?
Its inhibition is 89.5%.
